Data taken from US5780303A, “Method and composition for treating thrombosis” (priority 1995, dated 1998).
Like-named read-outs stand apart in the source and are kept apart here.

Tests used:
platelets [1] = test: Ex vivo inhibition of platelet aggregation (Table IV); assay type: in vivo; conditions: dose per code
Procedure: Using the method described in Example V to measure ex vivo inhibition of platelet aggregation and the method described in Example VII to measure bleeding, four additional peptides were tested. These peptides included 11J, 11Q, 11K and 11V.

platelets [2] = assay type: cell-based, human; conditions: ADP 10 μM, citrated PRP; unit only in text b178 (printed μm); read-out: ADP-Stimulated Aggregation
Procedure: Platelet aggregation assays were performed following the methods of this Example or those of Example IX.G. Platelet aggregation was assessed using the method of Born, Nature 194:927-929 (1962), incorporated herein by reference. Briefly, the change in light transmission was measured through a stirred suspension of platelets in an aggregometer (Model 400 VS, Chrono-Log, Havertown, Pa., USA). Studies employing ADP were performed with platelet-rich plasma (PRP), which was obtained by low-speed centrifugation (200×g for 10 min.) of whole blood freshly drawn into trisodium citrate (at a final concentration of 11 mm). In studies using thrombin, the PRP was gel-filtered on Sepharose 2B in divalent ion-free Tyroda's solution containing 2% BSA. For all studies, the reference standard was platelet-poor plasma, which was obtained by centrifuging PRP at 1000×g for 5 min.
All aggregation studies were performed at 37° C. with a constantly stirred suspension of 3×10^8 platelets/ml. (Platelet count was determined with the aid of a hemacytometer.) Peptides and stimulants were added to these suspensions in 1% dilutions. […]

platelets [3] = test: Thrombin-stimulated platelet aggregation (Table I); assay type: cell-based, human; conditions: thrombin 2 U/ml, gel-filtered platelets; unit only in text b178 (printed μm)
Procedure: (§1) Platelet aggregation assays were performed following the methods of this Example or those of Example IX.G. Platelet aggregation was assessed using the method of Born, Nature 194:927-929 (1962), incorporated herein by reference. Briefly, the change in light transmission was measured through a stirred suspension of platelets in an aggregometer (Model 400 VS, Chrono-Log, Havertown, Pa., USA). […] In studies using thrombin, the PRP was gel-filtered on Sepharose 2B in divalent ion-free Tyroda's solution containing 2% BSA. For all studies, the reference standard was platelet-poor plasma, which was obtained by centrifuging PRP at 1000×g for 5 min.
(§2) All aggregation studies were performed at 37° C. with a constantly stirred suspension of 3×10^8 platelets/ml. (Platelet count was determined with the aid of a hemacytometer.) Peptides and stimulants were added to these suspensions in 1% dilutions. The PRP and gel-filtered platelets were used within three hours from the time of blood collection.
Peptide anti-aggregation potencies were determined from dose-responsive curves for the inhibition of the maximum aggregation responses stimulated by physiologic doses of ADP (10 μm) and thrombin (2 U/ml).

coronary thrombosis = test: Electrically induced canine coronary thrombosis, time to full occlusion; assay type: in vivo, dog
Procedure: Male mongrel dogs weighing 14 to 20 kg were selected based on proper aggregation of their platelets in response to arachidonic acid, collagen, and adenosine disphosphate (ADP) and based on similar weights and hemodynamic properties.
Before surgery, the animals were anesthetized with sodium pentobarbital (30 mg/kg, i.v.) and then intubated and ventilated on room air with positive pressure using a respirator (Harvard Apparatus, S. Natick, Mass.) at a volume of 30 ml/kg and a frequency of 12 breaths/min. Surgery, performed under aseptic conditions, was begun with the placement of cannulae into the left carotid artery and jugular vein for monitoring arterial blood pressure (Statham P23 pressure transducer, Gould, Inc., Cardiovascular Products, Oxnard, Calif.) and administering intravenous fluids.
The heart was exposed via a left thoracotomy through the 5th intercostal space. A 2-cm segment of the left circumflex coronary artery (LCCA) was isolated from surrounding tissue by blunt dissection. […] The intra-coronary electrode was constructed by attaching a 25-gauge hypodermic needle tip to a 30-gauge Teflon-insulated silver-coated copper wire. The mechanical occluder was constructed of stainless steel in a C shape with a Teflon screw (2 mm diameter) on top. It was adjusted to control vessel circumference and decrease the reactive hyperemic flow due to a 10-sec (full) occlusion by 50-70% without affecting basal coronary blood flow (FIG. 1). A monopolar epicardial electrode was sutured to the surface of the ventricle in the region of LCCA distribution to monitor ischemic changes in the electrocardiogram (ECG). The left atrium was cannulated with polythylene tubing for administration of the peptide. Continuous recordings of blood pressure, limb lead II ECG, epicardial electrogram, and mean and phasic LCCA blood flow were obtained on a Model 7 polygraph (Grass Instrument Co., Quincy, Mass.).
One hour after the completion of surgery, a 100 micro-amp continuous anodal direct current delivered from a 9 volt nickel-cadmium battery was applied to the intimal surface of the LCCA. The anode of the battery was in series with a 250,000 ohm potentiometer and the intraluminal coronary artery electrode. The electric circuit was completed by placing the cathode in a subcutaneous site. Electrical stimulation was applied for three hours. At the conclusion of each experiment, the heart was fibrillated electrically and quickly removed, and the LCCA was dissected free as far as possible to verify he position of the implanted anodal electrode.
(§3) Animals were randomly assigned to two treatment groups: vehicle control (i.e., normal saline) or RGD peptides at various concentrations. Peptides were administered intra-atrially in both bolus and continuous injections. Each bolus injection consisted of 0.5 to 10 mg/kg and was administered 15 minutes before application of the current. A continuous infusion of the same peptide was then started immediately after completion of this initial injection. Animals received a 25 μg/kg/min to 200 μg/kg/min infusion. The anti-thrombotic effects of the peptides were monitored until 30 minutes after the occurrence of a persistent, occlusive thrombus or five hours after the initiation of electrical stimulation (whichever resulted first). If an occlusive thrombus had not developed within four hours after the initiation of current, the peptide infusion was stopped.
Coronary thrombosis was quantified as the time to full occlusion. The effects of the various peptide treatments on coronary thrombosis is illustrated in FIG. 4.

platelets [4] = test: Ex vivo platelet aggregation in canine coronary thrombosis model; parameters: species or system dog
Procedure: For all ex vivo studies (see FIG. 3), control aggregation values were standardized to the percentages of light transmission observed in PRP and PPP samples (0% and 100%, respectively).
as §3
Platelet counts and ex vivo aggregation studies were performed one hour before and 1, 3, and 5 hours after application of anodal direct current.
Platelet aggregation was also determined ex vivo at one, three, and five hours after current application. For these studies, arachidonic acid, or collagen was again used to stimulate the platelets.

[5] = Peripheral blood flow (PBF) by laser doppler probe, rabbit ear; assay type: in vivo; conditions: time 10 min; bolus dose per drug
Procedure: In an alternative series of experiments, (Table 2) PBF was measured quantitatively with a laser dopler flow probe (Perimed). The probe was positioned securely over the vascular bed of one ear and flow monitored continuously. Each inhibitor was infused and CBT measured in the opposing ear. No arterial catheter was placed for blood sampling, consequently XPA […] in these animals.
As positive control, epinephrine was infused intravenously (1 mg over 2 minutes) at 60 minutes. The resulting vasoconstriction reduced flow to near 0 flow units within 5 minutes.

platelets [6] = test: Platelet aggregation of small cyclic disulfide and lactam peptides; assay type: cell-based; conditions: for potency against platelet aggregation relative to 8×: comparator 8×
Procedure: as §1, with “Platelet” for “Platelet aggregation assays were performed following the methods of this Example or those of Example IX.G. Platelet”, “Tyrode's” for “Tyroda's”
as §2, with “platelets/mL.” for “platelets/ml.”

GP IIb/IIIa = GP IIb/IIIa (Homo sapiens, UniProt P05106+P08514); test: Differential inhibition of ligand binding to GP IIb/IIIa; conditions: fibrinogen vs fibronectin and vitronectin
[7] = system: Gore-tex vascular graft thrombosis; test: Platelet and fibrinogen uptake by Gore-Tex grafts, baboon ex vivo shunt; assay type: in vivo
Procedure: Adult male baboons (weighing 16 to 25 kg) were used in these studies. These were sedated with ketamine hydrochloride (200 to 250 mg intramuscular injection) and maintained under anesthesia with sodium pentobarbital (50 to 75 mg administered intravenously as necessary).
Twenty-four hours before the ex vivo shunt was established, platelets were isolated from 500 ml of blood from the test animal and labelled with ca. of 500 microcuries of indium-111 oxine (Medi+Physics, Emeryville, Calif.), which irreversibly and specifically binds to platelets with an efficiency of 50%. Immediately after labelling, these platelets were then injected back into the animal and allowed to circulate for 24 hours. Immediately before the start of the study, fibrinogen that had been isolated from the animal and labelled with iodine-131 (DuPont Nuclear, Boston, Mass.) was also injected back into the animal. Also at this time, baseline determinations of the clotting and template bleeding times were made, and blood samples were drawn for hematology studies.
To establish the ex vivo shunt, the femoral artery and vein were percutaneously cannulated with introducer catheters (KMA Inc., Mansfield, Mass.). The catheters were then connected to medical-grade, heparin-coatedsilastic tubing (2.59 mm internal diameter, (Extracorporeal Medical Specialties, Inc., King of Prussia, Pa.). […] Finally, a 5 cm-long test segment of a 4 mm (internal diameter) vascular graft was inserted at the apex of the circuit. The graft used in these studies was Gore-tex (expanded polytetrafluoroethylene, (W. L. Gore and Associates, Inc., Flagstaff, Ariz.). An electromagnetic flow probe was then inserted into the tubing circuit to measure blood flow, which was maintained at 100 ml/min. by varying the resistance imported by a partially occluding screw clamp that was distal to the probe. Finally, a 5 cm-long test segment of a 4 mm (internal diameter) vascular graft was inserted at the apex of the circuit. The graft used in these studies was Gore-tex (expanded polytetrafluoroethylene, W. L. Gore and Associates, Inc., Flagstaff, Ariz.).
Platelet deposition onto the grafts was monitored by dynamic scanning with a gamma camera (Sigma 400, Ohio Nuclear, Inc., Sohon, Ohio), which detects the gamma radiation emitted by the ^111 indium-labelled platelets. Once the circuit was in place, the animal was placed under this camera, and blood flow was initiated. Scans were then taken at the rate of one frame per two minutes for two hours. The data from these scans were collected on a dedicated Digital MDA computer (Maynard, Mass.). […]

platelets [8] = test: Ex vivo platelet aggregation in baboon PRP; conditions: animal 2; PRP at 0, 1, 2 h
Procedure: At one- and two-hour time points, template bleeding times were measured, and blood samples were drawn to assess the hematology aggregation studies. Platelet aggregation studies were performed as described in Example V using ADP as the stimulus.
In addition, platelet aggregation studies were conducted on PRP derived from the second animal. Whole blood was drawn at three time points (0, 1 and 2 hours) of both control and experimental shunts.

[9] = animal 1, two bolus IV injections of 10 mg/kg
[10] = animal 2, 10 mg/kg bolus IV plus 10 mg/kg/hr infusion for 2 h

Chain of GP IIb/IIIa (P08514 32-887 limits assumed): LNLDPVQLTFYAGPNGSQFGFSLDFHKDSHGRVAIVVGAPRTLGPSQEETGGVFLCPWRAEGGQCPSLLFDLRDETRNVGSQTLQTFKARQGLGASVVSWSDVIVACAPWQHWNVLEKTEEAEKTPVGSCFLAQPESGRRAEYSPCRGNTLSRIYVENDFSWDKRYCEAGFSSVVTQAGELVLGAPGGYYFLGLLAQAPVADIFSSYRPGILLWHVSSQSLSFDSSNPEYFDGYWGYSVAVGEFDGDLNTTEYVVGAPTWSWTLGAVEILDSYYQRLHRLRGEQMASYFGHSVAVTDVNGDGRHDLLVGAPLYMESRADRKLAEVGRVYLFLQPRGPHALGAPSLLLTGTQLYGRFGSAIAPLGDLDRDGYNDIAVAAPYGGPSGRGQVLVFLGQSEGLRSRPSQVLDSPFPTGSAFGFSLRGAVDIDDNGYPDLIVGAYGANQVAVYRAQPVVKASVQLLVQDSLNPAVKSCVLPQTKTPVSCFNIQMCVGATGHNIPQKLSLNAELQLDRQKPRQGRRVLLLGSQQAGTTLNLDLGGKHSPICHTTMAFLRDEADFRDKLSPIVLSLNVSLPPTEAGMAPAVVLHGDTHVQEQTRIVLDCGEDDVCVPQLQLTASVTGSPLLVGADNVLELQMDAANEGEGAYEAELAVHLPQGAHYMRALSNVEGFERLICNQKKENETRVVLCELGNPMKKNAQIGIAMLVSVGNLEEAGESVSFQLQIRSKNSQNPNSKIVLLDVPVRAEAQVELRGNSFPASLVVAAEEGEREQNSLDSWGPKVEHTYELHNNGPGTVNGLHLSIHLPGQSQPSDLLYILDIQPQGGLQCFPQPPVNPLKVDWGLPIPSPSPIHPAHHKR
Chain of GP IIb/IIIa (P08514 891-1039 partner limits assumed): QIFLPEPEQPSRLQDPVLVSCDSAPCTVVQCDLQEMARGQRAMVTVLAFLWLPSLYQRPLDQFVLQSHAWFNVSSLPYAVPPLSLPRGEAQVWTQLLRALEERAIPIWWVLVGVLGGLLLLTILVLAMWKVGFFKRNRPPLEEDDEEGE
Chain of GP IIb/IIIa (P05106 27-788): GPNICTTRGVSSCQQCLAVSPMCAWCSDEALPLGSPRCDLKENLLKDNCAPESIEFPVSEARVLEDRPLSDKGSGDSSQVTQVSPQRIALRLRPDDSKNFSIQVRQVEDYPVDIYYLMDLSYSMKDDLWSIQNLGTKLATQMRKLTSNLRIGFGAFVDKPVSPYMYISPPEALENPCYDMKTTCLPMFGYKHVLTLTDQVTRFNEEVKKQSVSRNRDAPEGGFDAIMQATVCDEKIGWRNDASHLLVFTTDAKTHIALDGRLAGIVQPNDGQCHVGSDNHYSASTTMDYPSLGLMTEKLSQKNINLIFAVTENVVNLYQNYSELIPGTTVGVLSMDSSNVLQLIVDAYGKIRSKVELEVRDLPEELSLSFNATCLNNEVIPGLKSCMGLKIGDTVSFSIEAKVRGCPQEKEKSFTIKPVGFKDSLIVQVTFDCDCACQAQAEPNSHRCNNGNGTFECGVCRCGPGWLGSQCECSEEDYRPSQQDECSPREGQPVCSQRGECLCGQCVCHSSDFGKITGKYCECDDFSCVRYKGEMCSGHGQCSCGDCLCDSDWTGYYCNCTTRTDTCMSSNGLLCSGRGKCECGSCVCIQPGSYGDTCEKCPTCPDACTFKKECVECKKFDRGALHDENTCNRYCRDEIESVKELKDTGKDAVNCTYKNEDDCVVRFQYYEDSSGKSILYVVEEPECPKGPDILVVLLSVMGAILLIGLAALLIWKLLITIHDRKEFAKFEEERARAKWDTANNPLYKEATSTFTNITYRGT

Which “ex vivo inhibition of platelet aggregation (%)” value (shortened to “ex vivo inhibition … (%)”) (platelets [1]) does the source give for Ac-CNPRGD(Y-OMe)EC-NH2 [11J] here?
Its value is greater than 98%.

With Ac-CNPRGD(Y-OMe)AC-NH2 [11K] as the substance, how does the “ex vivo inhibition … (%)” value (platelets [1]) read?
Its value is greater than 98%.

Which IC50 (platelets [2]) does the source give for R2 (Pen)GHGDTPCA here?
Its IC50 is 8.2 µM.

And the IC50 (platelets [3])?
The IC50 was 2.7 µM.

Which results are given for R(Pen)GHRGDWRCR [4Q]?
time to full occlusion (coronary thrombosis) (coronary thrombosis; 5 mg/kg): significantly prolonged the time to occlusion; thrombus formation (coronary thrombosis; 5 mg/kg, circulating platelet levels one-third of normal): able to prevent thrombus formation; time to full occlusion (coronary thrombosis) (coronary thrombosis; 10 mg/kg bolus plus infusion): completely prevented occlusion; ex vivo platelet activation by collagen (platelets [4]; 5 mg/kg): near-maximal inhibition; ex vivo platelet response to ADP and AA (platelets [4]; 5 mg/kg, all three time points): completely unresponsive; ex vivo platelet responsiveness (platelets [4]; 10 mg/kg, five-hour point): platelet responsiveness was slightly improved; ex vivo platelet aggregation, all three stimuli (platelets [4]; 10 mg/kg, one- and three-hour time points): prevented platelet aggregation; PBF (units) [5]: 9 units

Which “ex vivo inhibition … (%)” value (platelets [1]) does the source give for Ac-CNPKGD(Y-OMe)RC-NH2 [11Q] here?
Its value is greater than 95%.

With RGD(O-Me-Y)RE-NH2 [21I] as the substance, how does the “potency against platelet aggregation relative to 8×” value (platelets [6]) read?
Its value is “about three-fold more reactive than 8×”.

With R(Pen)GRGDWPCR [4R] as the substance, how does the “time to full occlusion (coronary thrombosis)” value (shortened to “time to full occlusion”) (coronary thrombosis; 3 mg/kg) read?
Its value is “ineffective”.

What about the “time to full occlusion” value (coronary thrombosis; 10 mg/kg bolus plus infusion) of the same substance?
Its value is “prevented occlusion throughout the duration of the study”.

What about the “ex vivo platelet response, all modes of stimulation” value (platelets [4]; 10 mg/kg, all time points) of the same substance?
Its value is “unresponsive to all modes of stimulation at all time points”.

For Ac-CNPRGD(Y-OMe)RCNH2 [8x], which “differential inhibition of binding of ligands to GP IIb/IIIa” value (GP IIb/IIIa) is on record?
Its value is “inhibits the binding of fibrinogen to GP IIb/IIIa more than it inhibits the binding of fibronectin and vitronectin to the same integrin”.

Which “ex vivo inhibition … (%)” value (platelets [1]) does the source give for Ac-CNPRGD(Y-OMe)(Nle)C-NH2 [11V] here?
Its value is greater than 98%.

For G(Pen)GHRGDLRCA [2G], which “time to full occlusion” value (coronary thrombosis; 10 mg/kg bolus plus infusion) is on record?
Its value is “did not significantly influence this frequency”.

And the “reduction in 111In-platelet uptake by graft” value [7, 9]?
The value was 90%.

What about the “reduction in 131I-fibrinogen uptake by graft” value [7, 9] of the same substance?
Its value is 79%.

And the “reduction in labelled fibrinogen uptake by graft” value [7, 10]?
Its value is 78%.

And the “reduction in labelled platelet uptake by graft” value [7, 10]?
Its value is 84%.

What about the “ex vivo ADP-stimulated aggregation” value (platelets [4]; 10 mg/kg, 1, 3, 5 h) of the same substance?
The value was “substantially inhibited”.

And the “ex vivo platelet response to ADP (10 μM)” value (platelets [8])?
Its value is “completely unresponsive”.

Which “potency against platelet aggregation relative to 8×” value (platelets [6]) does the source give for (Myr)RGD(O-Me-Y)RC-NH2 [16A] here?
Its value is “about two-fold more reactivity than 8×”.

What about the IC50 (platelets [6]; read-out: inhibited platelet aggregation with an IC50) of the same substance?
Its IC50 is 0.12 µM.

For G(dPen)GHRGDLRCA, which IC50 (platelets [2]) is on record?
Its IC50 is 5.28 ± 0.7 µM.
